Measured values taken from ChEMBL document CHEMBL1201861, “Genomics of Drug Sensitity in Cancer screening data, Wellcome Trust Sanger Institute”.

Assays:
[1] = tested on: HT55; assay: cells; format: functional, cell-based, Homo sapiens; conditions: Homo sapiens, HT55;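 note: cell viability readout measuring growth inhibition of human HT55 cells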
Description: SANGER: Inhibition of human HT55 cell growth in a cell viability assay.

[2] = tested on: TE-441-T; assay: cells; format: functional, cell-based; conditions: Homo sapiens
Description: SANGER: Inhibition of human TE-441-T cell growth in a cell viability assay.

[3] = tested on: MHH-CALL-2; assay: cells; format: functional, cell-based; conditions: Homo sapiens;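 note: growth inhibition of the cell line, read out in a cell viability assay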
Description: SANGER: Inhibition of human MHH-CALL-2 cell growth in a cell viability assay.

[4] = tested on: IST-SL2; assay: cells; format: functional, cell-based; conditions: Homo sapiens;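 note: growth inhibition of human IST-SL2 cells, read out by a cell viability assay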
Description: SANGER: Inhibition of human IST-SL2 cell growth in a cell viability assay.

[5] = tested on: NALM-6; assay: cells; format: functional, cell-based; conditions: Homo sapiens;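 note: growth inhibition of NALM-6 cells, read out with a cell viability assay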
Description: SANGER: Inhibition of human NALM-6 cell growth in a cell viability assay.

[6] = tested on: LC-1F; assay: cells; format: functional, cell-based; conditions: Homo sapiens;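 note: growth inhibition of human LC-1F cells, read out with a cell viability assay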
Description: SANGER: Inhibition of human LC-1F cell growth in a cell viability assay.

[7] = tested on: TALL-1; assay: cells; format: functional, cell-based; conditions: Homo sapiens;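 note: growth inhibition of cultured human TALL-1 cells, read out by a cell viability assay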
Description: SANGER: Inhibition of human TALL-1 cell growth in a cell viability assay.

[8] = tested on: SJRH30; assay: cells; format: functional, cell-based; conditions: Homo sapiens;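 note: growth inhibition of human SJRH30 cells, read out with a cell viability assay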
Description: SANGER: Inhibition of human SJRH30 cell growth in a cell viability assay.

[9] = tested on: CHP-126; assay: cells; format: functional, cell-based; conditions: Homo sapiens
Description: SANGER: Inhibition of human CHP-126 cell growth in a cell viability assay.

[10] = tested on: DMS-153; assay: cells; format: functional, cell-based; conditions: Homo sapiens
Description: SANGER: Inhibition of human DMS-153 cell growth in a cell viability assay.

[11] = tested on: EB2; assay: cells; format: functional, cell-based; conditions: Homo sapiens;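 note: growth inhibition of EB2 cells, read out with a cell viability assay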
Description: SANGER: Inhibition of human EB2 cell growth in a cell viability assay.

[12] = tested on: SIMA; assay: cells; format: functional, cell-based, Homo sapiens; conditions: Homo sapiens, SIMA;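 note: growth inhibition of SIMA cells, measured with a cell viability readout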
Description: SANGER: Inhibition of human SIMA cell growth in a cell viability assay.

[13] = tested on: SNU-423; assay: cells; format: functional, cell-based, Homo sapiens; conditions: Homo sapiens, SNU-423
Description: SANGER: Inhibition of human SNU-423 cell growth in a cell viability assay.

[14] = tested on: LC4-1; assay: cells; format: functional, cell-based; conditions: Homo sapiens;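 note: growth inhibition of LC4-1 cells, read out with a cell viability assay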
Description: SANGER: Inhibition of human LC4-1 cell growth in a cell viability assay.

[15] = tested on: SNU-16; assay: cells; format: functional, cell-based; conditions: Homo sapiens;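 note: growth inhibition of human SNU-16 cells, determined with a cell viability readout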
Description: SANGER: Inhibition of human NCI-SNU-16 cell growth in a cell viability assay.

[16] = tested on: NCI-H2196; assay: cells; format: functional, cell-based; conditions: Homo sapiens;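 note: cell viability assay used as the readout of growth inhibition in NCI-H2196 cells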
Description: SANGER: Inhibition of human NCI-H2196 cell growth in a cell viability assay.

[17] = tested on: NCI-H1882; assay: cells; format: functional, cell-based; conditions: Homo sapiens;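 note: growth inhibition of the cell line, determined with a viability assay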
Description: SANGER: Inhibition of human NCI-H1882 cell growth in a cell viability assay.

[18] = tested on: NCCIT; assay: SANGER: Inhibition of human NCCIT cell growth in a cell viability assay.; format: functional, cell-based
[19] = tested on: SK-MM-2; assay: cells; format: functional, cell-based; conditions: Homo sapiens;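 note: growth inhibition of human SK-MM-2 cells, read out with a cell viability assay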
Description: SANGER: Inhibition of human SK-MM-2 cell growth in a cell viability assay.

[20] = tested on: NB1; assay: cells; format: functional, cell-based; conditions: Homo sapiens;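 note: reduction of NB1 cell proliferation, read out with a viability assay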
Description: SANGER: Inhibition of human NB1 cell growth in a cell viability assay.

[21] = tested on: MC-CAR; assay: cells; format: functional, cell-based; conditions: Homo sapiens;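 note: growth inhibition of the human MC-CAR cell line, read out by a cell viability assay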
Description: SANGER: Inhibition of human MC-CAR cell growth in a cell viability assay.

[22] = tested on: HSC-4; assay: cells; format: functional, cell-based, Homo sapiens; conditions: Homo sapiens, HSC-4;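 note: growth inhibition of human HSC-4 cells, read out with a cell viability assay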
Description: SANGER: Inhibition of human HSC-4 cell growth in a cell viability assay.

[23] = tested on: LP-1; assay: cells; format: functional, cell-based; conditions: Homo sapiens;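 note: growth inhibition of human LP-1 cells, with the read-out taken from a cell viability assay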
Description: SANGER: Inhibition of human LP-1 cell growth in a cell viability assay.

[24] = tested on: NCI-H1417; assay: cells; format: functional, cell-based; conditions: Homo sapiens;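 note: human NCI-H1417 cells, growth inhibition determined with a cell viability readout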
Description: SANGER: Inhibition of human NCI-H1417 cell growth in a cell viability assay.

[25] = tested on: SCLC-21H; assay: cells; format: functional, cell-based; conditions: Homo sapiens;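 note: growth inhibition of cultured human SCLC-21H cells, read out with a cell viability assay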
Description: SANGER: Inhibition of human SCLC-21H cell growth in a cell viability assay.

[26] = tested on: RL; assay: cells; format: functional, cell-based; conditions: Homo sapiens
Description: SANGER: Inhibition of human RL cell growth in a cell viability assay.

[27] = tested on: NCI-H748; assay: cells; format: functional, cell-based; conditions: Homo sapiens;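 note: growth inhibition of NCI-H748 cells, measured by a cell viability assay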
Description: SANGER: Inhibition of human NCI-H748 cell growth in a cell viability assay.

[28] = tested on: CAL-148; assay: cells; format: functional, cell-based; conditions: Homo sapiens
Description: SANGER: Inhibition of human CAL-148 cell growth in a cell viability assay.

[29] = tested on: P31-FUJ; assay: cells; format: functional, cell-based; conditions: Homo sapiens;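 note: growth inhibition of P31-FUJ cells, read out with a viability assay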
Description: SANGER: Inhibition of human P31-FUJ cell growth in a cell viability assay.

[30] = tested on: BL-41; assay: cells; format: functional, cell-based; conditions: Homo sapiens;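 note: growth inhibition of human BL-41 cells, read out with a cell viability assay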
Description: SANGER: Inhibition of human BL-41 cell growth in a cell viability assay.

[31] = tested on: BL-70; assay: SANGER: Inhibition of human BL-70 cell growth in a cell viability assay.; format: functional, cell-based
[32] = tested on: NCI-H460; assay: cells; format: functional, cell-based, Homo sapiens; conditions: Homo sapiens, NCI-H460;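 note: cell viability assay scoring growth inhibition of human NCI-H460 cells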
Description: SANGER: Inhibition of human NCI-H460 cell growth in a cell viability assay.

[33] = tested on: WSU-NHL; assay: cells; format: functional, cell-based; conditions: Homo sapiens;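 note: growth inhibition of human WSU-NHL cells, read out with a cell viability assay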
Description: SANGER: Inhibition of human WSU-NHL cell growth in a cell viability assay.

[34] = tested on: PF-382; assay: cells; format: functional, cell-based; conditions: Homo sapiens
Description: SANGER: Inhibition of human PF-382 cell growth in a cell viability assay.

[35] = tested on: RPMI-6666; assay: cells; format: functional, cell-based; conditions: Homo sapiens
Description: SANGER: Inhibition of human RPMI-6666 cell growth in a cell viability assay.

[36] = tested on: EVSA-T; assay: cells; format: functional, cell-based, Homo sapiens; conditions: Homo sapiens, EVSA-T;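 note: growth inhibition of EVSA-T cells, read out with a cell viability assay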
Description: SANGER: Inhibition of human EVSA-T cell growth in a cell viability assay.

[37] = tested on: NCI-H719; assay: cells; format: functional, cell-based; conditions: Homo sapiens;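 note: growth inhibition of the cultured cell line, read out with a viability assay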
Description: SANGER: Inhibition of human NCI-H719 cell growth in a cell viability assay.

[38] = tested on: UACC-812; assay: cells; format: functional, cell-based; conditions: Homo sapiens
Description: SANGER: Inhibition of human UACC-812 cell growth in a cell viability assay.

[39] = tested on: NCI-H2171; assay: cells; format: functional, cell-based; conditions: Homo sapiens;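 note: growth inhibition of human NCI-H2171 cells, read out by a cell viability assay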
Description: SANGER: Inhibition of human NCI-H2171 cell growth in a cell viability assay.

[40] = tested on: U-698-M; assay: cells; format: functional, cell-based; conditions: Homo sapiens
Description: SANGER: Inhibition of human U-698-M cell growth in a cell viability assay.

[41] = tested on: CMK; assay: cells; format: functional, cell-based; conditions: Homo sapiens;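 note: growth inhibition of CMK cells, read out as cell viability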
Description: SANGER: Inhibition of human CMK cell growth in a cell viability assay.

[42] = tested on: CESS; assay: SANGER: Inhibition of human CESS cell growth in a cell viability assay.; format: functional, cell-based
[43] = tested on: SIG-M5; assay: cells; format: functional, cell-based; conditions: Homo sapiens;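 note: cell viability assay read-out, measuring how strongly growth of cultured human SIG-M5 cells is inhibited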
Description: SANGER: Inhibition of human SIG-M5 cell growth in a cell viability assay.

[44] = tested on: RPMI 8402; assay: SANGER: Inhibition of human RPMI-8402 cell growth in a cell viability assay.; format: functional, cell-based
[45] = tested on: BC-3; assay: cells; format: functional, cell-based; conditions: Homo sapiens;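 note: cell viability assay measuring growth inhibition of human BC-3 cells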
Description: SANGER: Inhibition of human BC-3 cell growth in a cell viability assay.

[46] = tested on: NCI-H522; assay: cells; format: functional, cell-based, Homo sapiens; conditions: Homo sapiens, NCI-H522;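 note: cell viability assay measuring growth inhibition of human NCI-H522 cells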
Description: SANGER: Inhibition of human NCI-H522 cell growth in a cell viability assay.

[47] = tested on: MONO-MAC-6; assay: cells; format: functional, cell-based; conditions: Homo sapiens;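 note: cell viability assay measuring growth inhibition of human MONO-MAC-6 cells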
Description: SANGER: Inhibition of human MONO-MAC-6 cell growth in a cell viability assay.

[48] = tested on: NCI-H1522; assay: cells; format: functional, cell-based; conditions: Homo sapiens;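 note: growth inhibition of NCI-H1522 cells, read out with a cell viability assay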
Description: SANGER: Inhibition of human NCI-H1522 cell growth in a cell viability assay.

[49] = tested on: NCI-H64; assay: cells; format: functional, cell-based; conditions: Homo sapiens;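 note: growth inhibition of NCI-H64 cells, read out with a cell viability assay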
Description: SANGER: Inhibition of human NCI-H64 cell growth in a cell viability assay.

[50] = tested on: RL95-2; assay: cells; format: functional, cell-based; conditions: Homo sapiens;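 note: RL95-2 growth inhibition determined through a cell viability readout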
Description: SANGER: Inhibition of human RL95-2 cell growth in a cell viability assay.

Structure (SMILES): Cc1ccc(Nc2nccc(N(C)c3ccc4c(C)n(C)nc4c3)n2)cc1S(N)(=O)=O [PAZOPANIB]
- IC50 [1]: 988 nM
- IC50 [2]: > 8000 nM
- IC50 [3]: > 8000 nM
- IC50 [4]: > 8000 nM
- IC50 [5]: > 8000 nM
- IC50 [6]: > 8000 nM
- IC50 [7]: > 8000 nM
- IC50 [8]: > 8000 nM
- IC50 [9]: > 8000 nM
- IC50 [10]: > 8000 nM
- IC50 [11]: 3280 nM
- IC50 [12]: > 8000 nM
- IC50 [13]: > 8000 nM
- IC50 [14]: > 8000 nM
- IC50 [15]: > 8000 nM
- IC50 [16]: > 8000 nM
- IC50 [17]: > 8000 nM
- IC50 [18]: > 8000 nM
- IC50 [19]: > 8000 nM
- IC50 [20]: > 8000 nM
- IC50 [21]: > 8000 nM
- IC50 [22]: > 8000 nM
- IC50 [23]: > 8000 nM
- IC50 [24]: > 8000 nM
- IC50 [25]: > 8000 nM
- IC50 [26]: > 8000 nM
- IC50 [27]: > 8000 nM
- IC50 [28]: > 8000 nM
- IC50 [29]: > 8000 nM
- IC50 [30]: > 8000 nM
- IC50 [31]: > 8000 nM
- IC50 [32]: > 8000 nM
- IC50 [33]: > 8000 nM
- IC50 [34]: > 8000 nM
- IC50 [35]: > 8000 nM
- IC50 [36]: > 8000 nM
- IC50 [37]: > 8000 nM
- IC50 [38]: > 8000 nM
- IC50 [39]: > 8000 nM
- IC50 [40]: > 8000 nM
- IC50 [41]: > 8000 nM
- IC50 [42]: > 8000 nM
- IC50 [43]: > 8000 nM
- IC50 [44]: > 8000 nM
- IC50 [45]: > 8000 nM
- IC50 [46]: > 8000 nM
- IC50 [47]: > 8000 nM
- IC50 [48]: > 8000 nM
- IC50 [49]: > 8000 nM

Structure (SMILES): Cn1cncc1[C@@](N)(c1ccc(Cl)cc1)c1ccc2c(c1)c(-c1cccc(Cl)c1)cc(=O)n2C [TIPIFARNIB]
- IC50 [1]: > 16000 nM
- IC50 [2]: > 16000 nM
- IC50 [3]: 10600 nM
- IC50 [4]: 13300 nM
- IC50 [5]: 36.2 nM
- IC50 [6]: > 16000 nM
- IC50 [7]: > 16000 nM
- IC50 [8]: 8710 nM
- IC50 [9]: > 16000 nM
- IC50 [10]: > 16000 nM
- IC50 [11]: 2720 nM
- IC50 [12]: > 16000 nM
- IC50 [13]: 705 nM
- IC50 [14]: 2550 nM
- IC50 [15]: > 16000 nM
- IC50 [16]: > 16000 nM
- IC50 [17]: > 16000 nM
- IC50 [18]: 1280 nM
- IC50 [19]: > 16000 nM
- IC50 [20]: > 16000 nM
- IC50 [21]: 9070 nM
- IC50 [22]: > 16000 nM
- IC50 [23]: > 16000 nM
- IC50 [24]: > 16000 nM
- IC50 [25]: > 16000 nM
- IC50 [26]: > 16000 nM
- IC50 [27]: > 16000 nM
- IC50 [28]: 884 nM
- IC50 [29]: > 16000 nM
- IC50 [30]: 2770 nM
- IC50 [31]: 1950 nM
- IC50 [32]: 4930 nM
- IC50 [33]: > 16000 nM
- IC50 [34]: 1710 nM
- IC50 [35]: < 62.5 nM
- IC50 [36]: > 16000 nM
- IC50 [37]: 10500 nM
- IC50 [38]: > 16000 nM
- IC50 [39]: 3550 nM
- IC50 [40]: 3990 nM
- IC50 [41]: 151 nM
- IC50 [42]: 2020 nM
- IC50 [43]: < 62.5 nM
- IC50 [44]: 1280 nM
- IC50 [45]: 2980 nM
- IC50 [46]: 2400 nM
- IC50 [47]: 3350 nM
- IC50 [48]: > 16000 nM
- IC50 [49]: > 16000 nM

Structure (SMILES): CCC(=O)N1CCN(c2ccc(-n3c(=O)ccc4cnc5ccc(-c6cnc7ccccc7c6)cc5c43)cc2C(F)(F)F)CC1 [TORIN1]
- IC50 [2]: 1040 nM
- IC50 [3]: 335 nM
- IC50 [4]: 53.6 nM
- IC50 [5]: 11 nM
- IC50 [6]: 39.9 nM
- IC50 [7]: 229 nM
- IC50 [9]: > 1200 nM
- IC50 [10]: > 1200 nM
- IC50 [11]: > 1200 nM
- IC50 [12]: > 1200 nM
- IC50 [14]: 87.4 nM
- IC50 [15]: 302 nM
- IC50 [16]: 330 nM
- IC50 [17]: 167 nM
- IC50 [18]: 543 nM
- IC50 [19]: 107 nM
- IC50 [20]: 279 nM
- IC50 [21]: 554 nM
- IC50 [23]: 89.4 nM
- IC50 [24]: 697 nM
- IC50 [25]: > 1200 nM
- IC50 [26]: > 1200 nM
- IC50 [27]: 189 nM
- IC50 [50]: 3.2 nM
- IC50 [28]: 118 nM
- IC50 [29]: > 1200 nM
- IC50 [30]: 6.96 nM
- IC50 [31]: 3.37 nM
- IC50 [33]: > 1200 nM
- IC50 [34]: 75.7 nM
- IC50 [35]: 288 nM
- IC50 [36]: 8.92 nM
- IC50 [37]: 967 nM
- IC50 [39]: > 1200 nM
- IC50 [40]: > 1200 nM
- IC50 [41]: 15.4 nM
- IC50 [42]: 31 nM
- IC50 [43]: 89 nM
- IC50 [44]: 77.9 nM
- IC50 [45]: 82 nM
- IC50 [47]: 72.1 nM
- IC50 [48]: 649 nM
- IC50 [49]: 303 nM
